# Results as given in ChEMBL document CHEMBL1146699, “P3 cap modified Phe*-Ala series BACE inhibitors” (Bioorg Med Chem Lett, 2004).
# Assays:
# Beta-secretase 1 = Beta-secretase 1 (Homo sapiens, UniProt P56817); test: In vitro inhibitory activity against Beta-secretase 1 in human HEK293 cells; format: cell-based
# HEK293 [1] = test: Inhibitory activity against beta-amyloid (Abeta) peptide in human HEK293/APP751swe cells; format: functional, cell-based
# HEK293 [2] = test: Inhibitory activity against beta-amyloid (Abeta) peptide in human HEK293/APP751swe cells; Range 4.8-7.5; format: functional, cell-based
# HEK293 [3] = test: Inhibitory activity against beta-amyloid (Abeta) peptide in human HEK293/APP751swe cells; Range 0.97-1.35; format: functional, cell-based
# [4] = target: T1, Beta-secretase 2 (Homo sapiens) (UniProt Q9Y5Z0); test: Selectivity tested against Beta-secretase 2 (BACE) in human
# T1 sequence (whole entry): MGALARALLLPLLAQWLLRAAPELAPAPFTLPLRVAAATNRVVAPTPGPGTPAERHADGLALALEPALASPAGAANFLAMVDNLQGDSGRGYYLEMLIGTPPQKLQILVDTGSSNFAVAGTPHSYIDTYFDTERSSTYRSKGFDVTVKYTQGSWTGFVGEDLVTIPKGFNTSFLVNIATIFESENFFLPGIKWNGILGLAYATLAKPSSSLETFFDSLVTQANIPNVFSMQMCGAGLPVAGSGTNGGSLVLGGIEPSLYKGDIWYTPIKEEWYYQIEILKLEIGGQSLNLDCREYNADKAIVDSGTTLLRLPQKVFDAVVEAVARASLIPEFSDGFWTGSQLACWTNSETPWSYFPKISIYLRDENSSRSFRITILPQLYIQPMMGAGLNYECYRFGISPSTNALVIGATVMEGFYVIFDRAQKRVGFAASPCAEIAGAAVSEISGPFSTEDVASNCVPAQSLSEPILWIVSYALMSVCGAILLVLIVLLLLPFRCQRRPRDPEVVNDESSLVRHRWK
# Chain of Beta-secretase 1 (P56817 whole entry): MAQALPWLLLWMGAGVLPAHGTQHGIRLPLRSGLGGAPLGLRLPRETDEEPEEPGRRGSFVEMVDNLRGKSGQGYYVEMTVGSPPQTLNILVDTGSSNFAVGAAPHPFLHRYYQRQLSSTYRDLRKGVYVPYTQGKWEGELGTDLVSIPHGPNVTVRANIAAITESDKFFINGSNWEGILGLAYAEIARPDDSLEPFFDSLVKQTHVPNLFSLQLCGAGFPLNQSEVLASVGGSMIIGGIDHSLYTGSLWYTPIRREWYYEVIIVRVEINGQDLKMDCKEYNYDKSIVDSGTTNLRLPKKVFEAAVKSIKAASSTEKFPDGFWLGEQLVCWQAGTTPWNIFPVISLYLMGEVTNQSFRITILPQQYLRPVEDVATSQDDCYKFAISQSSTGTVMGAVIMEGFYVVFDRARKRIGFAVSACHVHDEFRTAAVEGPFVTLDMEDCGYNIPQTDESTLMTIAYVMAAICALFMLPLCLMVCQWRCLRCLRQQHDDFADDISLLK
Structure (SMILES),IC50 (Beta-secretase 1),IC50 (HEK293 [1]),IC50 (HEK293 [2]),IC50 (HEK293 [3]),Selectivity [4]
"CC(C)CC(=O)N[C@@H](C)C(=O)N[C@@H](Cc1ccccc1)[C@@H](O)CC(C)C(=O)N[C@H](C(=O)NCc1ccncc1)C(C)C (single isomer, unassigned)",1740 nM,> 100000 nM,,,
CC[C@H](C)[C@H](O)C(=O)N[C@@H](CC(F)F)C(=O)N[C@@H](Cc1ccccc1)[C@@H](O)C[C@@H](CC(F)F)C(=O)N[C@H](C(=O)NCc1ccncc1)C(C)C,3180 nM,> 37500 nM,,,
CC(C)[C@H](O)C(=O)N[C@@H](C)C(=O)N[C@@H](Cc1ccccc1)[C@@H](O)C[C@@H](C)C(=O)N[C@H](C(=O)NCc1ccncc1)C(C)C,130 nM,,< 7500 nM,,
"CC(C[C@H](O)[C@H](Cc1ccccc1)NC(=O)[C@@H](NC(=O)[C@@H](O)C(C)C)C(C)C)C(=O)N[C@H](C(=O)NCc1ccncc1)C(C)C (single isomer, unassigned)",4640 nM,,,,
"CCC(C[C@H](O)[C@H](Cc1ccccc1)NC(=O)[C@H](C)NC(=O)[C@@H](O)C(C)C)C(=O)N[C@H](C(=O)N[C@@H](C)c1ccccc1)C(C)C (single isomer, unassigned)",60 nM,19800 nM,,,
"CC(C[C@H](O)[C@H](Cc1ccccc1)NC(=O)[C@H](C)NC(=O)[C@@H](O)C(C)C)C(=O)N[C@H](C(=O)NCc1ccccc1)C(C)C (single isomer, unassigned)",37 nM,6300 nM,,,
"CC(C[C@H](O)[C@H](Cc1ccccc1)NC(=O)[C@H](COC(C)(C)C)NC(=O)[C@@H](O)C(C)C)C(=O)N[C@H](C(=O)NCc1ccncc1)C(C)C (single isomer, unassigned)",4490 nM,,,,
"CC[C@H](C)[C@H](O)C(=O)N[C@@H](CCCF)C(=O)N[C@@H](Cc1ccccc1)[C@@H](O)CC(CCCF)C(=O)N[C@H](C(=O)NCc1ccncc1)C(C)C (single isomer, unassigned)",67 nM,,,< 1350 nM,
"CSCC[C@H](NC(=O)[C@@H](O)C(C)C)C(=O)N[C@@H](Cc1ccccc1)[C@@H](O)CC(C)C(=O)N[C@H](C(=O)NCc1ccncc1)C(C)C (single isomer, unassigned)",350 nM,25200 nM,,,
"CC(C)C[C@H](O)C(=O)N[C@@H](C)C(=O)N[C@@H](Cc1ccccc1)[C@@H](O)CC(C)C(=O)N[C@H](C(=O)NCc1ccncc1)C(C)C (single isomer, unassigned)",230 nM,16900 nM,,,
"CC[C@H](C)[C@H](O)C(=O)N[C@@H](C)C(=O)N[C@@H](Cc1ccccc1)[C@@H](O)CC(C)C(=O)N[C@H](C(=O)NCc1ccncc1)C(C)C (single isomer, unassigned)",35 nM,1230 nM,,,
"CC(C[C@H](O)[C@H](Cc1ccccc1)NC(=O)[C@H](C)NC(=O)[C@@H](O)CC(F)(F)F)C(=O)N[C@H](C(=O)NCc1ccncc1)C(C)C (single isomer, unassigned)",220 nM,3900 nM,,,
"CC[C@H](C)[C@H](O)C(=O)N[C@@H](CC(C)C)C(=O)N[C@@H](Cc1ccccc1)[C@@H](O)CC(CC(C)C)C(=O)N[C@H](C(=O)NCc1ccncc1)C(C)C (single isomer, unassigned)",176 nM,3700 nM,,,
"CCC(C[C@H](O)[C@H](Cc1ccccc1)NC(=O)[C@H](C)NC(=O)[C@@H](O)C(C)C)C(=O)N[C@H](C(=O)N[C@H](C)c1ccccc1)C(C)C (single isomer, unassigned)",100 nM,13600 nM,,,
"CCC[C@H](NC(=O)[C@@H](O)C(C)C)C(=O)N[C@@H](Cc1ccccc1)[C@@H](O)CC(C)C(=O)N[C@H](C(=O)NCc1ccncc1)C(C)C (single isomer, unassigned)",550 nM,30400 nM,,,
"CC[C@H](C)[C@H](O)C(=O)N[C@@H](CCC(F)F)C(=O)N[C@@H](Cc1ccccc1)[C@@H](O)CC(CCC(F)F)C(=O)N[C@H](C(=O)NCc1ccncc1)C(C)C (single isomer, unassigned)",45 nM,1080 nM,,,
"CC(C[C@H](O)[C@H](Cc1ccccc1)NC(=O)[C@H](C)NC(=O)[C@@H](N)C(C)C)C(=O)NC(C(=O)NCc1ccncc1)C(C)C (single isomer, unassigned)",190 nM,38400 nM,,,0.52
"CC(C[C@H](O)[C@H](Cc1ccccc1)NC(=O)[C@H](C)NC(=O)[C@@H](F)C(C)C)C(=O)N[C@H](C(=O)NCc1ccncc1)C(C)C (single isomer, unassigned)",1130 nM,49000 nM,,,
"CC(C[C@H](O)[C@H](Cc1ccccc1)NC(=O)[C@H](CO)NC(=O)[C@@H](O)C(C)C)C(=O)N[C@H](C(=O)NCc1ccncc1)C(C)C (single isomer, unassigned)",350 nM,20000 nM,,,
